Reference: EP1137632B1, “THIOUREA INHIBITORS OF HERPES VIRUSES” (Wyeth, priority 1998, dated 2000)
Values after ≈ are worked out from the molar mass of the structure shown. Like-named read-outs stand apart in the source and are kept apart here.

Tests used:
[1] = system: HCMV recombinant mutant virus; test: microbe, parasite or virus in culture; format: cell-based, human cytomegalovirus; conditions: Human betaherpesvirus 5, read-out: IC50 (ug/ml) HCMV
Source text: Microtiter plate assay. Ninety-six well plate cultures of human foreskin fibroblasts are infected in the presence of inhibitor compound with a HCMV recombinant mutant virus whose genome contains the prokaryotic beta-glucuronidase gene (Jefferson, R. A., S. M. Burgess, and D. Hirsh. 1986. Beta-glucuronidase from Escherichia coli as a gene fusion marker. Proc. Natl. Acad. Sci. USA 83:8447-8451) whose expression is controlled by a viral promoter. An example of such a virus is RV145 (Jones, T. R., V. P. Muzithras, and Y. Gluzman. 1991. Replacement mutagenesis of the human cytomegalovirus genome: US10 and US11 gene products are nonessential. J. Virol. 65:5860-5872). Since it is under the control of a viral promoter, beta-glucuronidase expression is an indirect indicator of growth and replication of HCMV in this assay. At 96 hours post-infection, the infected cell lysates are prepared (using 50mM sodium phosphate [pH7.0] containing 0.1 % Triton X-100 and 0.1% sarkosyl) and assayed for beta-glucuronidase activity using a substrate for the enzyme which when cleaved yields either a product which can be measured colorimetrically in a spectrophotometer or fluorescently in a microfluorimeter. Examples of such substrates are p-nitrophenyl-beta-D-glucuronide and methylumbelliferylglucuronide, respectively. The presence of an antiviral compound is indicated by the reduced expression of the HCMV genome resident beta-glucuronidase gene, compared to the absence of inhibitor. […] Data from this assay generated using varying amounts of inhibitor compound is also used to estimate the IC50 of an inhibitor compound.

HSV-1 = test: HSV antiviral (ELISA) assay in Vero cells; format: cell-based, herpes simplex virus type 1; conditions: read-out: IC50 (ug/ml) HSV
Procedure: HSV antiviral (ELISA) assay
Vero cells (ATCC #CCL-81) are plated on 96-well tissue culture plates at 3.5x10^4 cells per 100µl tissue culture DMEM (Dulbecco's modified Eagle media) supplemented with 2% fetal bovine serum (FBS) in each well. After overnight incubation @ 37°C (in 5% CO2) and 30 minutes prior to infection with HSV-1 (multiplicity of infection equal to 0.006), cells are either untreated, or treated with test compound (multiple concentrations) or reference standard drug control. After approximately 24 hours post-infection incubation @ 37°C (in 5% CO2), cells are fixed for ELISA assay. The primary antibody is murine anti-HSV glycoprotein D monoclonal primary antibody and the secondary antibody is goat anti-mouse IgG linked to β-galactosidase. Thus the extent of viral replication is determined by assessing β-galactosidase activity by quantifying the generation of the 4-methyl umbelliferone fluorescent cleavage product after addition of the methyl umbelliferyl-β-D-galactoside (Sigma #M1633) substrate on a microfluorimeter (365nm for excitation and 450nm for emission). Antiviral activity (IC50) of the test compound is determined by comparing the flourescence obtained in absence of compound to that obtained in the presence of compound.

VZV strain Ellen = test: VZV antiviral (ELISA) assay in human foreskin fibroblast cells; format: cell-based, varicella-zoster virus
Procedure: VZV antiviral (ELISA) assay
For the generation of stock VZV to be used in the assay, VZV strain Ellen (ATCC #VR-1367) is used to infect human foreskin fibroblast (HFF) cells at low multiplicity (less than 0.1) and incubated overnight at 37°C in 5% CO2. After the overnight incubation, the mixture of uninfected and VZV-infected HFF infected cells are then harvested and added to each well of 96-well plates (3.5x10^4 cells in 100 µl DMEM supplemented with 2% FBS) which contain test compound or the reference standard drug control (in 100µl DMEM supplemented with 2% FBS per well). These cells are incubated for three days at 37°C in 5% CO2, then fixed for ELISA assay. The primary antibody is murine anti-VZV glycoprotein II monoclonal antibody (Applied Biosystems, Inc. #13-145-100) and the secondary antibody is goat anti-mouse IgG linked to β-galactosidase. Thus the extent of viral replication is determined by assessing β-galactosidase activity by quantifying the generation of the 4-methyl umbelliferone fluorescent cleavage product after addition of the methyl umbelliferyl-β-D-galactoside (Sigma #M1633) substrate on a microfluorimeter (365nm for excitation and 450nm for emission). Antiviral activity (IC50) of the test compound is determined by comparing the flourescence obtained in absence of compound to that obtained in the presence of compound.

[2] = Human alphaherpesvirus 1, HSV-1 in Vero cells
[3] = Human alphaherpesvirus 3, Fibroblast; read-out: % inhibition 10 ug/ml VZV
[4] = Human alphaherpesvirus 3; VZV strain Ellen in HFF cells; read-out: IC50 (ug/ml) VZV

Row | SMILES | IC50 [1] | IC50 (HSV-1; [2]) | inhibition at 10 µg/mL (VZV strain Ellen; [3]) | IC50 (VZV strain Ellen; [4]) | IC50 (HSV-1; Human alphaherpesvirus 1, Vero) | inhibition at 10 µg/mL (VZV strain Ellen; Human alphaherpesvirus 3, Fibroblast, read-out: % inhibition 10 ug/ml VZV) | IC50 (VZV strain Ellen; Human alphaherpesvirus 3, HFF, read-out: IC50 (ug/ml) VZV)
1 | COc1cc(OC)c(NC(=S)Nc2ccc(NC(=O)c3ccccc3F)cc2C)cc1Cl [Example 295, N-{4-[3-(5-Chloro-2,4-dimethoxy-phenyl)-thioureido]-3-methyl-phenyl}-2-fluoro-benzamide] | > 10 µg/mL | 0.15 µg/mL (≈ 0.316 µM) | 20% | > 10 µg/mL | – | – | –
2 | COc1cc(OC)c(NC(=S)Nc2ccc(NC(=O)c3ccccc3F)c(C(=O)Nc3ccccc3)c2)cc1Cl [Example 301, 5-[[[(5-Chloro-2,4-dimethoxyphenyl)amino]thioxomethyl]amino]-2-[(2-fluorobenzoyl)amino]-N-phenyl-benzamide] | > 10 µg/mL | 10 µg/mL (≈ 17.3 µM) | 10% | > 10 µg/mL | – | – | –
3 | COc1cc(OC)c(NC(=S)Nc2ccc(NC(=O)c3ccccc3F)c(OC)c2)cc1Cl [Example 303, N-{4-[3-(5-Chloro-2,4-dimethoxy-phenyl)-thioureido]-2-methoxy-phenyl}-2-fluoro-benzamide] | > 10 µg/mL | > 10 µg/mL | 15% | > 10 µg/mL | – | – | –
4 | COc1cc(OC)c(NC(=S)Nc2ccc(NC(=O)c3ccccc3F)c(C)c2)cc1Cl [Example 310, N-{4-[3-(5-Chloro-2,4-dimethoxy-phenyl)-thioureido]-2-methyl-phenyl}-2-fluoro-benzamide] | > 10 µg/mL | 2 µg/mL (≈ 4.22 µM) | 40% | > 10 µg/mL | – | – | –
5 | COc1cc(OC)c(NC(=S)Nc2ccc(NC(=O)c3ccccc3F)c3ccccc23)cc1Cl [Example 325, N-{4-[3-(5-Chloro-2,4-dimethoxy-phenyl)-thioureido]-naphthalen-1-yl}-2-fluoro-benzamide] | > 10 µg/mL | 1 µg/mL (≈ 1.96 µM) | 33% | > 10 µg/mL | – | – | –
6 | COc1cc(OC)c(NC(=S)Nc2cc(C)c(NC(=O)c3ccccc3F)cc2Cl)cc1Cl [Example 327, N-{5-Chloro-4-[3-(5-chloro-2,4-dimethoxy-phenyl)-thioureido]-2-methyl-phenyl}-2-fluoro-benzamide] | > 10 µg/mL | > 10 µg/mL | 42% | > 10 µg/mL | – | – | –
7 | COc1cc(OC)c(NC(=S)Nc2ccc(NC(=O)c3ccccc3F)c(C(=O)O)c2)cc1Cl [Example 338, 5-[3-(5-Chloro-2,4-dimethoxy-phenyl)-thioureido]-2-(2-fluoro-benzoylamino)-benzoic acid] | 35 µg/mL (≈ 69.5 µM) | – | – | – | > 50 µg/mL | 13% | > 10 µg/mL
8 | COc1cc(OC)c(NC(=S)Nc2ccc(NC(=O)c3c(F)cccc3F)cc2C)cc1Cl [Example 347, N-{4-[3-(5-Chloro-2,4-dimethoxy-phenyl)-thioureido]-3-methyl-phenyl}-2,6-difluoro-benzamide] | 10 µg/mL (≈ 20.3 µM) | 0.06 µg/mL (≈ 0.122 µM) | 34% | > 10 µg/mL | – | – | –
9 | COc1cc(OC)c(NC(=S)Nc2ccc(NC(=O)c3ccccc3F)cc2C(F)(F)F)cc1Cl [Example 359, N-{4-[3-(5-Chloro-2,4-dimethoxy-phenyl)-thioureido]-3-trifluoromethyl-phenyl}-2-fluoro-benzamide] | > 10 µg/mL | 0.6 µg/mL (≈ 1.14 µM) | 59% | > 10 µg/mL | – | – | –
10 | COc1cc(OC)c(NC(=S)Nc2ccc(NC(=O)c3ccccc3F)cc2C#N)cc1Cl [Example 381, N-{4-[3-(5-Chloro-2,4-dimethoxy-phenyl)-thioureido]-3-cyano-phenyl}-2-fluoro-benzamide] | > 10 µg/mL | > 10 µg/mL | 13% | > 10 µg/mL | – | – | –
